# Test results published in PMC4109671, “Cloning, Expression, Purification, and Characterization of Glutaredoxin from Antarctic Sea-Ice Bacterium Pseudoalteromonas sp. AN178” (BioMed Research International, 2014).
# Tested on: T1, rPsGrx
# T1 construct: gene PsGrx; active site C12-P-F-C15 (abstract prints CPYC)
# Assay: GSH-dependent HED reduction coupled to yeast glutathione reductase, NADPH consumption at […] nm; Lineweaver-Burk
# Type: biochemical, Pseudoalteromonas sp. AN178
# Details: HED 0.4 to 8 mM, 1 mM GSH fixed, yeast GR, apparent Km, standard assay at 25°C
smiles,measurement,value
OCCSSCCO [HED],Km,460 µM
